Reference: ChEMBL document CHEMBL4011620, “Design and Discovery of N-(2-Methyl-5'-morpholino-6'-((tetrahydro-2H-pyran-4-yl)oxy)-[3,3'-bipyridin]-5-yl)-3-(trifluoromethyl)benzamide (RAF709): A Potent, Selective, and Efficacious RAF Inhibitor Targeting RAS Mutant Cancers” (J Med Chem, 2017)
pEC50, pIC50: −log10 of the molar value. Converted amounts (≈) assume the structure as drawn.

Test system: not listed separately
Test: Intrinsic clearance in rat liver microsomes
Assay type: ADME, microsome
Conditions: read-out: CLH; call rule not given here

microsomal CLint [µL/min/mg] | Compound
46 | Cc1ccc(NC(=O)c2cccc(C(F)(F)F)c2)cc1-c1cc(N2CCOCC2)c(=O)n(C)c1
79 | Cc1ccc(NC(=O)c2cccc(C(F)(F)F)c2)cc1-c1cc(N2CCOCC2)ncn1
210 | Cc1ccc(C(=O)Nc2cccc(C(C)(C)C)c2)cc1-c1cc(N2CCOCC2)ncn1

Test system: not listed separately
Test: Solubility of compound at pH 6.8 by shake-flask assay
Conditions: buffer

Compound | solubility thermodynamic [µM]
Cc1ncc(NC(=O)c2cccc(C(F)(F)F)c2)cc1-c1cnc(OCCO)c(N2CCOCC2)c1 | 24 (≈ 12.1 µg/mL)
Cc1ccc(NC(=O)c2cccc(C(F)(F)F)c2)cc1-c1cn(C)c(=O)c(N2CCOCC2)n1 | 190 (≈ 89.8 µg/mL)
COc1ncc(-c2cc(NC(=O)c3cccc(C(F)(F)F)c3)cnc2C)cc1N1CCOCC1 | < 2
Cc1ncc(NC(=O)c2ccnc(C(F)(F)F)c2)cc1-c1cc(N2CCOCC2)c(=O)n(C)c1 | 1040 (≈ 492 µg/mL)
Cc1ncc(NC(=O)c2cccc(C(F)(F)F)c2)cc1-c1cnc(OC(C)C)c(N2CCOCC2)c1 | < 2
Cc1ccc(C(=O)Nc2cccc(C(C)(C)C)c2)cc1-c1cc(N2CCOCC2)ncn1 | 20 (≈ 8.61 µg/mL)

The next lines start with the values.

solubility thermodynamic [µM] | Compound
< 2 | Cc1ccc(NC(=O)c2cccc(C(F)(F)F)c2)cc1-c1ccnc(N2CCOCC2)c1
70 (≈ 33 µg/mL) | Cc1ccc(NC(=O)c2cccc(C(F)(F)F)c2)cc1-c1cc(N2CCOCC2)c(=O)n(C)c1
16 (≈ 7.08 µg/mL) | Cc1ccc(NC(=O)c2cccc(C(F)(F)F)c2)cc1-c1cc(N2CCOCC2)ncn1
20 (≈ 9.45 µg/mL) | Cc1ncc(NC(=O)c2cccc(C(F)(F)F)c2)cc1-c1cc(N2CCOCC2)c(=O)n(C)c1

Test system: not listed separately
Test: AUC in Sprague-Dawley rat at 3 mg/kg, po
Assay type: ADME, organism-based
Conditions: in vivo

AUC [µM·h] | Compound
0.438 | Cc1ccc(NC(=O)c2cccc(C(F)(F)F)c2)cc1-c1cc(N2CCOCC2)c(=O)n(C)c1

Test system: Serine/threonine-protein kinase B-raf (Homo sapiens), P15056 [V600E]
Test: Binding affinity to human BRAF V600E mutant (429 to 741 residues) expressed in mammalian expression system at 1 uM by kinome scan assay relative to control
Conditions: not given

Sequence of Serine/threonine-protein kinase B-raf (Homo sapiens), P15056 [V600E] (P15056 whole entry V600E, the tested form may be a part): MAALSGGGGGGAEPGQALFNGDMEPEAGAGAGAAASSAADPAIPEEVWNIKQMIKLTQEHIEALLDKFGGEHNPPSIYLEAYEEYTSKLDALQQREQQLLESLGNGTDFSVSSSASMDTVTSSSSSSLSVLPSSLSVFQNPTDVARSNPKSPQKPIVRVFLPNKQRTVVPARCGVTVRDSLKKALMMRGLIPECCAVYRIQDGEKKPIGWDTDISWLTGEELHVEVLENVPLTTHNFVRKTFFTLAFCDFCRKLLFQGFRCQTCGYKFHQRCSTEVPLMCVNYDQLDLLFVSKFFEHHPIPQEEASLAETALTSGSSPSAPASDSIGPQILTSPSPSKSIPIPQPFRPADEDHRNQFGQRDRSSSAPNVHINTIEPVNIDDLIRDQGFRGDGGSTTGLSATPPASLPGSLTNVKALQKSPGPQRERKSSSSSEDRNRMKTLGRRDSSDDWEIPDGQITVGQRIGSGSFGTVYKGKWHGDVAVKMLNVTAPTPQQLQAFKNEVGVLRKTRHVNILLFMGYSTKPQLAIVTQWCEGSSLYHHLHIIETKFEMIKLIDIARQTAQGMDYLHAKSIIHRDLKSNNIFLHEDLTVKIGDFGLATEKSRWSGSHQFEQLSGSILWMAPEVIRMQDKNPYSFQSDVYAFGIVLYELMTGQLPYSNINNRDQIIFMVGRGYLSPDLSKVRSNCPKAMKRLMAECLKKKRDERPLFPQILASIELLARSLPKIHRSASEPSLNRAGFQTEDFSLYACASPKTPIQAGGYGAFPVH

Activity [%] | Compound
> 99 | Cc1ccc(NC(=O)c2cccc(C(F)(F)F)c2)cc1-c1cc(N2CCOCC2)c(=O)n(C)c1

Test system: not listed separately
Test: Apparent permeability across basolateral to apical side in human Caco2 cells at pH 7.4 by LC/MS/MS analysis
Conditions: Caco-2, pH 7.4

Compound | Papp B→A [×10⁻⁶ cm/s]
Cc1ncc(NC(=O)c2cccc(C(F)(F)F)c2)cc1-c1cnc(OCCO)c(N2CCOCC2)c1 | 45
Cc1ccc(NC(=O)c2cccc(C(F)(F)F)c2)cc1-c1cn(C)c(=O)c(N2CCOCC2)n1 | 16
COc1ncc(-c2cc(NC(=O)c3cccc(C(F)(F)F)c3)cnc2C)cc1N1CCOCC1 | 14
Cc1ncc(NC(=O)c2ccnc(C(F)(F)F)c2)cc1-c1cc(N2CCOCC2)c(=O)n(C)c1 | 39
Cc1ccc(C(=O)Nc2cccc(C(C)(C)C)c2)cc1-c1cc(N2CCOCC2)ncn1 | 15

Continued, values first:

Papp B→A [×10⁻⁶ cm/s] | Compound
1.8 | Cc1ccc(NC(=O)c2cccc(C(F)(F)F)c2)cc1-c1ccnc(N2CCOCC2)c1
22 | Cc1ccc(NC(=O)c2cccc(C(F)(F)F)c2)cc1-c1cc(N2CCOCC2)c(=O)n(C)c1
38 | Cc1ccc(NC(=O)c2cccc(C(F)(F)F)c2)cc1-c1cc(N2CCOCC2)ncn1
43 | Cc1ncc(NC(=O)c2cccc(C(F)(F)F)c2)cc1-c1cc(N2CCOCC2)c(=O)n(C)c1

Test system: not listed separately
Test: Apparent permeability across apical to basolateral side in human Caco2 cells at pH 7.4 by LC/MS/MS analysis
Conditions: Caco-2, pH 7.4

Compound | Papp A→B [×10⁻⁶ cm/s]
Cc1ncc(NC(=O)c2cccc(C(F)(F)F)c2)cc1-c1cnc(OCCO)c(N2CCOCC2)c1 | 5
Cc1ccc(NC(=O)c2cccc(C(F)(F)F)c2)cc1-c1cn(C)c(=O)c(N2CCOCC2)n1 | 21
COc1ncc(-c2cc(NC(=O)c3cccc(C(F)(F)F)c3)cnc2C)cc1N1CCOCC1 | 16
Cc1ncc(NC(=O)c2ccnc(C(F)(F)F)c2)cc1-c1cc(N2CCOCC2)c(=O)n(C)c1 | 3
Cc1ccc(C(=O)Nc2cccc(C(C)(C)C)c2)cc1-c1cc(N2CCOCC2)ncn1 | 15

Continued, values first:

Papp A→B [×10⁻⁶ cm/s] | Compound
20 | Cc1ccc(NC(=O)c2cccc(C(F)(F)F)c2)cc1-c1cc(N2CCOCC2)c(=O)n(C)c1
19 | Cc1ccc(NC(=O)c2cccc(C(F)(F)F)c2)cc1-c1cc(N2CCOCC2)ncn1
7 | Cc1ncc(NC(=O)c2cccc(C(F)(F)F)c2)cc1-c1cc(N2CCOCC2)c(=O)n(C)c1

Test system: not listed separately
Test: Oral bioavailability in Sprague-Dawley rat at 3 mg/kg
Assay type: ADME, organism-based
Conditions: in vivo

bioavailability [%] | Compound
22 | Cc1ccc(NC(=O)c2cccc(C(F)(F)F)c2)cc1-c1cc(N2CCOCC2)c(=O)n(C)c1

Target: T1, RAF proto-oncogene serine/threonine-protein kinase (Homo sapiens, UniProt P04049)
Test: Inhibition CRAF in human Calu6 cells assessed as decrease in MEK phosphorylation after 2 hrs by HTRF method
Assay type: cell-based
Conditions: not given

T1 sequence (P04049 whole entry): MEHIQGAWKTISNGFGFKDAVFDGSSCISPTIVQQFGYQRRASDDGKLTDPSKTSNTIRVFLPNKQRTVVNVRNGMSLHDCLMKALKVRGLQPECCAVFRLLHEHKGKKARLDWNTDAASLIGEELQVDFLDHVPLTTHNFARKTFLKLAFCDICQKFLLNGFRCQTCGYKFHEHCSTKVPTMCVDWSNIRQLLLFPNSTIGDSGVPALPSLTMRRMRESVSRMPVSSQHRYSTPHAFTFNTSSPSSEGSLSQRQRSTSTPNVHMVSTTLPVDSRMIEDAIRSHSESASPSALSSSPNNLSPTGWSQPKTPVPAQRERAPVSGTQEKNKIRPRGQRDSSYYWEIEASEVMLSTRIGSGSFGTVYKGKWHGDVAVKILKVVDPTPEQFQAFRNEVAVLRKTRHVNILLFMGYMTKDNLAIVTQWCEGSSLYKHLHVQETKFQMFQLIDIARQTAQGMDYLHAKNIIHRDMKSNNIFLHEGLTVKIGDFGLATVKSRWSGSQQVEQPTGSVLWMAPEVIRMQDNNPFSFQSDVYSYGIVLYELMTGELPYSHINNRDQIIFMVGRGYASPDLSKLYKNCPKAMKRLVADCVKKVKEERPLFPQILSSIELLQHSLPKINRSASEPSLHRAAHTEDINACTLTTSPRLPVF

Compound | pEC50
Cc1ccc(NC(=O)c2cccc(C(F)(F)F)c2)cc1-c1cn(C)c(=O)c(N2CCOCC2)n1 | 6.70
Cc1ncc(NC(=O)c2ccnc(C(F)(F)F)c2)cc1-c1cc(N2CCOCC2)c(=O)n(C)c1 | 5.40
Cc1ccc(C(=O)Nc2cccc(C(C)(C)C)c2)cc1-c1cc(N2CCOCC2)ncn1 | 6.70

Further lines, results first:

pEC50 | Compound
6.70 | Cc1ccc(NC(=O)c2cccc(C(F)(F)F)c2)cc1-c1ccnc(N2CCOCC2)c1
6.34 | Cc1ncc(NC(=O)c2cccc(C(F)(F)F)c2)cc1-c1cc(N2CCOCC2)c(=O)n(C)c1
6.15 | Cc1ccc(C(=O)Nc2cccc(C(F)(F)F)c2)cc1-c1cc(N2CCOCC2)ncn1

Test system: not listed separately
Test: Cmax in Sprague-Dawley rat at 3 mg/kg, po
Assay type: ADME, organism-based
Parameters: dose 3 mg/kg, route oral
Conditions: in vivo

Cmax [nM] | Compound
150 | Cc1ccc(NC(=O)c2cccc(C(F)(F)F)c2)cc1-c1cc(N2CCOCC2)c(=O)n(C)c1

Target: T1, RAF proto-oncogene serine/threonine-protein kinase
Test: Activation of CRAF in human Calu6 cells assessed as increase in MEK phosphorylation at 3 uM after 2 hrs by FRET assay
Assay type: cell-based
Conditions: not given

Activity | Compound
Active | CCCS(=O)(=O)Nc1ccc(F)c(C(=O)c2c[nH]c3ncc(-c4ccc(Cl)cc4)cc23)c1F [VEMURAFENIB]

Target: Serine/threonine-protein kinase B-raf (Homo sapiens, UniProt P15056)
Test: Binding affinity to human BRAF (429 to 741 residues) expressed in mammalian expression system at 1 uM by kinome scan assay relative to control
Conditions: not given

Sequence of Serine/threonine-protein kinase B-raf (P15056 whole entry, the tested form may be a part): as the sequence (P15056 whole entry V600E, the tested form may be a part) above, with E600V counted along it

Activity [%] | Compound
> 99 | Cc1ccc(NC(=O)c2cccc(C(F)(F)F)c2)cc1-c1cc(N2CCOCC2)c(=O)n(C)c1

Test system: not listed separately
Test: Clearance in Sprague-Dawley rat 1 mg/kg, iv or 3 mg/kg, po
Assay type: ADME, organism-based
Conditions: in vivo

clearance [mL/min/kg] | Compound
53 | Cc1ccc(NC(=O)c2cccc(C(F)(F)F)c2)cc1-c1cc(N2CCOCC2)c(=O)n(C)c1

Target: Platelet-derived growth factor receptor alpha (Homo sapiens) (UniProt P16234)
Test: Binding affinity to human PDGFRalpha (330 to 640 residues) expressed in mammalian expression system at 1 uM by kinome scan assay relative to control
Conditions: not given

Sequence of Platelet-derived growth factor receptor alpha (Homo sapiens) (P16234 whole entry, the tested form may be a part): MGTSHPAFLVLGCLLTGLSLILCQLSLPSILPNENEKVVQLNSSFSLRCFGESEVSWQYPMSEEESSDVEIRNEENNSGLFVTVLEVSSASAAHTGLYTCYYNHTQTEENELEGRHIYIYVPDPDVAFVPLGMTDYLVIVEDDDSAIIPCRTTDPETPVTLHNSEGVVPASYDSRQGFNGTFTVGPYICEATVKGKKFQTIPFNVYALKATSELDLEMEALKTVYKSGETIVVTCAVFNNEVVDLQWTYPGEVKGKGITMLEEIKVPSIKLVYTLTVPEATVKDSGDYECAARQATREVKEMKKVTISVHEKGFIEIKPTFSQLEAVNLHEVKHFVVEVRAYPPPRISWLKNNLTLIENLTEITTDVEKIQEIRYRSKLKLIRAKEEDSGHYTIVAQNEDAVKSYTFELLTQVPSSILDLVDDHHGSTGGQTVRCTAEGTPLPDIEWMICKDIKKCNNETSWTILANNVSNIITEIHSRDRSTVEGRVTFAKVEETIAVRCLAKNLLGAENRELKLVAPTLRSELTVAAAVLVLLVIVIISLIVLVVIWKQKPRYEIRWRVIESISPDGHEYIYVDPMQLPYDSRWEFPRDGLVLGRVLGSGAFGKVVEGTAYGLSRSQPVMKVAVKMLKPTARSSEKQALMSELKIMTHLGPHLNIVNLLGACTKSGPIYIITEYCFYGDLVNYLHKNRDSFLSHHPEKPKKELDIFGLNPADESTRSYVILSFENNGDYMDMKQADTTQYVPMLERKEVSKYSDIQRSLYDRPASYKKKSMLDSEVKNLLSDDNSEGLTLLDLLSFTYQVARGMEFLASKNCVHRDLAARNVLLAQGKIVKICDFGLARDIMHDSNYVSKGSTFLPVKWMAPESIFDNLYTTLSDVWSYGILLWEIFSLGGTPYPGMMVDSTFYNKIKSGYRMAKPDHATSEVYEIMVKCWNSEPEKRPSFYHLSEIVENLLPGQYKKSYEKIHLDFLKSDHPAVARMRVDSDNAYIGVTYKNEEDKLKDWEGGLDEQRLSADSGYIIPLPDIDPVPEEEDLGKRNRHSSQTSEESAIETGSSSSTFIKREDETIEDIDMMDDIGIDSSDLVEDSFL

Activity [%] | Compound
89 | Cc1ccc(NC(=O)c2cccc(C(F)(F)F)c2)cc1-c1cc(N2CCOCC2)c(=O)n(C)c1

Test system: not listed separately
Test: Intrinsic clearance in human liver microsomes
Assay type: ADME, microsome
Conditions: read-out: CLH

Compound | microsomal CLint [µL/min/mg]
Cc1ccc(NC(=O)c2cccc(C(F)(F)F)c2)cc1-c1cn(C)c(=O)c(N2CCOCC2)n1 | 110
Cc1ncc(NC(=O)c2ccnc(C(F)(F)F)c2)cc1-c1cc(N2CCOCC2)c(=O)n(C)c1 | < 7.7
Cc1ccc(C(=O)Nc2cccc(C(C)(C)C)c2)cc1-c1cc(N2CCOCC2)ncn1 | 170

Now from value to compound:

microsomal CLint [µL/min/mg] | Compound
51 | Cc1ccc(NC(=O)c2cccc(C(F)(F)F)c2)cc1-c1cc(N2CCOCC2)c(=O)n(C)c1
43 | Cc1ccc(NC(=O)c2cccc(C(F)(F)F)c2)cc1-c1cc(N2CCOCC2)ncn1
< 7.7 | Cc1ncc(NC(=O)c2cccc(C(F)(F)F)c2)cc1-c1cc(N2CCOCC2)c(=O)n(C)c1

Test system: Calu-6
Test: Antiproliferative activity against human Calu6 cells harboring KRAS Q61K mutant assessed as reduction cell viability after 72 hrs by CellTiter-Glo assay
Assay type: functional, cell-based
Conditions: Calu-6, 72 h

Compound | pEC50
Cc1ncc(NC(=O)c2cccc(C(F)(F)F)c2)cc1-c1cnc(OCCO)c(N2CCOCC2)c1 | 5.60
Cc1ccc(NC(=O)c2cccc(C(F)(F)F)c2)cc1-c1cn(C)c(=O)c(N2CCOCC2)n1 | 5.39
COc1ncc(-c2cc(NC(=O)c3cccc(C(F)(F)F)c3)cnc2C)cc1N1CCOCC1 | 5.80
Cc1ncc(NC(=O)c2ccnc(C(F)(F)F)c2)cc1-c1cc(N2CCOCC2)c(=O)n(C)c1 | < 4.52
Cc1ncc(NC(=O)c2cccc(C(F)(F)F)c2)cc1-c1cnc(OC(C)C)c(N2CCOCC2)c1 | 5.54
Cc1ccc(C(=O)Nc2cccc(C(C)(C)C)c2)cc1-c1cc(N2CCOCC2)ncn1 | 5.19

Further lines, results first:

pEC50 | Compound
6.15 | Cc1ccc(NC(=O)c2cccc(C(F)(F)F)c2)cc1-c1ccnc(N2CCOCC2)c1
6.30 | Cc1ccc(NC(=O)c2cccc(C(F)(F)F)c2)cc1-c1cc(N2CCOCC2)c(=O)n(C)c1
5.28 | Cc1ccc(NC(=O)c2cccc(C(F)(F)F)c2)cc1-c1cc(N2CCOCC2)ncn1
5.74 | Cc1ncc(NC(=O)c2cccc(C(F)(F)F)c2)cc1-c1cc(N2CCOCC2)c(=O)n(C)c1
5.51 | Cc1ccc(C(=O)Nc2cccc(C(F)(F)F)c2)cc1-c1cc(N2CCOCC2)ncn1

Target: RAF proto-oncogene serine/threonine-protein kinase (Homo sapiens, UniProt P04049, Y340E/Y341E)
Test: Inhibition of CRAF Y340E/Y341E mutant (unknown origin) using human MEK1 K97R mutant as substrate pretreated for 30 mins followed by substrate addition measured after 40 mins by alphascreen assay
Conditions: not given

Sequence of RAF proto-oncogene serine/threonine-protein kinase (Homo sapiens, UniProt P04049, Y340E/Y341E) (P04049 whole entry Y340E/Y341E): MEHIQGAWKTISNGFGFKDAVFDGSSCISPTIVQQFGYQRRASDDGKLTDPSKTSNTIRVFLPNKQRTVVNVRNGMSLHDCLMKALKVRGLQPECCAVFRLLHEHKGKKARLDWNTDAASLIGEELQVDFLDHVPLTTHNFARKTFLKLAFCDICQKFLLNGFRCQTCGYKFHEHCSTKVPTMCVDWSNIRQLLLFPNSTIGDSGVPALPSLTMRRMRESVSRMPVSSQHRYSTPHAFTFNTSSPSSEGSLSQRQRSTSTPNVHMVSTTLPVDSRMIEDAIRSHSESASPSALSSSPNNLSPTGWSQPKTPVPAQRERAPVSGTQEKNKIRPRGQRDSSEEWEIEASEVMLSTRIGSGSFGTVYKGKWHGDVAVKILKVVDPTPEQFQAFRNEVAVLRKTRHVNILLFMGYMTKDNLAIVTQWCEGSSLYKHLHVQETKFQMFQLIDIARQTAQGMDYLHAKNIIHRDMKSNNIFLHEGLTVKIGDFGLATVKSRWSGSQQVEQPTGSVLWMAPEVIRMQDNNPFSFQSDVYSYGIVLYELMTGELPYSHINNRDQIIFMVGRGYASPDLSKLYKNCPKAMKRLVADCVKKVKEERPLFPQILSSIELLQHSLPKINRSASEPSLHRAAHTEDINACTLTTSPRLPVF

pIC50 | Compound
9.00 | Cc1ncc(NC(=O)c2ccnc(C(F)(F)F)c2)cc1-c1cc(N2CCOCC2)c(=O)n(C)c1
8.70 | Cc1ccc(C(=O)Nc2cccc(C(F)(F)F)c2)cc1-c1cc(N2CCOCC2)ncn1
9.30 | Cc1ccc(C(=O)Nc2cccc(C(C)(C)C)c2)cc1-c1cc(N2CCOCC2)ncn1
